Patent US20050065194A1, “Methods of treating conditions associated with an Edg-2 receptor” (priority 2003, published 2005)

Assays:
[1] = target: Histamine H1, Central (Cavia porcellus, UniProt P31389); conditions: significance criteria ≧50% of max stimulation or inhibition; Table 2
Description: (§1) In order to test the selectivity of compounds, various radioligand binding assays were performed using numerous non-Edg receptor targets as listed below.
(§2) A radioligand binding assay was performed using adrenergic α1 according to the method of Greengrass and Bremner 1979, Eur. J. Pharmacol. 55:323-326. A radioligand binding assay was performed using adrenergic α2 according to the method of Boyajian and Leslie, 1987, J. Pharmacol. Exp. Ther. 241:1092-1098. A radioligand binding assay was performed using adrenergic β according to the method of Feve et al., 1994, Proc. Natl. Acad. Sci USA 91:5677-5681. A radioligand binding assay was performed using angiotensin AT2 according to the method of Whitebread et al., 1991, Biochem. Biophys. Res. Comm. 181:1365-1371. A radioligand binding assay was performed using calcium channel Type L, dihydropyridine according to the method of Ehlert et al., 1982, Life Sci. 30:2191-2202. A radioligand binding assay was performed using dopamine D2L according to the method of Bunzo et al., 1988, Nature 336:783-787. A radioligand binding assay was performed using endothelin ETA according to the method of Mihara et al., 1994, J. Pharmacol. Exp Ther. 268:1122-1127. A radioligand binding assay was performed using histamine H1 Central according to the method of Hill et al., 1978, J. Neurochem. 31:997-1004. A radioligand binding assay was performed using Muscarinic non-selective, Central according to the method of Luthin and Wolfe, 1984, J. Pharmacol. Exp. Ther. 228:648-655. A radioligand binding assay was performed using serotonin 5-HT1, non-selective according to the method of Middlemiss, 1984, Eur. J. Pharmacol. 101:289-293).

[2] = target: Dopamine D2L (Homo sapiens, UniProt P14416); conditions: significance criteria ≧50% of max stimulation or inhibition; Table 2
Sequence of Dopamine D2L (P14416 whole entry): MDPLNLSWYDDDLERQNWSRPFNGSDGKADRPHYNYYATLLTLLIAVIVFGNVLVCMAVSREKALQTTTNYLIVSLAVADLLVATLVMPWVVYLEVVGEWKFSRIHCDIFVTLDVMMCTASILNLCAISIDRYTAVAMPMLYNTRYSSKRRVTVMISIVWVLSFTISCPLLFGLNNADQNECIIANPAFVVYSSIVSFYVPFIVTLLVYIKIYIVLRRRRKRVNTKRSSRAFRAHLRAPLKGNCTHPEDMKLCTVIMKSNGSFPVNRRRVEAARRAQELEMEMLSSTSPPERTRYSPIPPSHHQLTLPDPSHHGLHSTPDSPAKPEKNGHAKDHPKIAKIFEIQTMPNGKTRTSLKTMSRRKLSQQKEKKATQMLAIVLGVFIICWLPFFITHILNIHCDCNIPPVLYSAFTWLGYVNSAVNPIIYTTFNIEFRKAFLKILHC
Description: as §1, §2

[3] = tested on: Calcium Channel Type L, Dihydropyridine; conditions: significance criteria ≧50% of max stimulation or inhibition; Table 2
Description: as §1, §2

[4] = target: Angiotensin AT2 (Homo sapiens, UniProt P50052); conditions: significance criteria ≧50% of max stimulation or inhibition; Table 2
Sequence of Angiotensin AT2 (P50052 whole entry): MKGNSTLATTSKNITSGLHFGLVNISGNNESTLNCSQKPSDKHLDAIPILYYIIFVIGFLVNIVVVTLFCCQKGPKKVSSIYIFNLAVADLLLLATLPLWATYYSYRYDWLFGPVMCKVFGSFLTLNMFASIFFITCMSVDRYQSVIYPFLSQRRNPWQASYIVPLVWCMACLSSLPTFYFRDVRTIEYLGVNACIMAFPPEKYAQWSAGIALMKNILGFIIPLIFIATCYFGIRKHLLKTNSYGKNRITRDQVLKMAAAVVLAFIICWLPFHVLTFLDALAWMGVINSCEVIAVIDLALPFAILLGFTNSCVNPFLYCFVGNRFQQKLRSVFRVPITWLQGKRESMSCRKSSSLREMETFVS
Description: as §1, §2

[5] = tested on: Serotonin 5-HT1, non-selective; conditions: significance criteria ≧50% of max stimulation or inhibition; Table 2
Description: as §1, §2

[6] = tested on: Adrenergic β; conditions: significance criteria ≧50% of max stimulation or inhibition; Table 2
Description: as §1, §2

[7] = target: Endothelin ETA (Homo sapiens, UniProt P25101); conditions: significance criteria ≧50% of max stimulation or inhibition; Table 2
Sequence of Endothelin ETA (P25101 21-427): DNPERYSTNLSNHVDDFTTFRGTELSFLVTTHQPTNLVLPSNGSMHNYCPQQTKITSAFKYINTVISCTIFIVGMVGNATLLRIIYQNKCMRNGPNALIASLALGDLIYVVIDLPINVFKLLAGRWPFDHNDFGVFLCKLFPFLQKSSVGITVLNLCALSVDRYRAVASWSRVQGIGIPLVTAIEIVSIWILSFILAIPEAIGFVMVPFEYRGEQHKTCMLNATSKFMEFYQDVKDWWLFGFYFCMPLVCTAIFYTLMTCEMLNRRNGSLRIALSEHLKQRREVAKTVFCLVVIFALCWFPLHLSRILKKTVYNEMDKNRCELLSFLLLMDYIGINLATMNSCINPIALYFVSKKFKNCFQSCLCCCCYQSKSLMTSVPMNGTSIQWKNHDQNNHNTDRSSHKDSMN
Description: as §1, §2

[8] = tested on: Adrenergic α2; conditions: significance criteria ≧50% of max stimulation or inhibition; Table 2
Description: as §1, §2

[9] = tested on: Muscarinic non-selective, Central; conditions: significance criteria ≧50% of max stimulation or inhibition; Table 2
Description: as §1, §2

[10] = tested on: Adrenergic α1, non-selective; conditions: significance criteria ≧50% of max stimulation or inhibition; Table 2
Description: as §1, §2

[11] = target: T1, Edg 5 receptor (Homo sapiens, UniProt O95136); experiment: LPA/S1P-stimulated calcium mobilization assay (FLIPR), HTC cells expressing Edg 5; type: cell-based; conditions: for inhibition of S1P-stimulated calcium increases: FIG. 1 / FIG. 2
T1 construct: expressed in transfected cells; host or cells: HTC (rat hepatoma) cells
T1 sequence (O95136 whole entry): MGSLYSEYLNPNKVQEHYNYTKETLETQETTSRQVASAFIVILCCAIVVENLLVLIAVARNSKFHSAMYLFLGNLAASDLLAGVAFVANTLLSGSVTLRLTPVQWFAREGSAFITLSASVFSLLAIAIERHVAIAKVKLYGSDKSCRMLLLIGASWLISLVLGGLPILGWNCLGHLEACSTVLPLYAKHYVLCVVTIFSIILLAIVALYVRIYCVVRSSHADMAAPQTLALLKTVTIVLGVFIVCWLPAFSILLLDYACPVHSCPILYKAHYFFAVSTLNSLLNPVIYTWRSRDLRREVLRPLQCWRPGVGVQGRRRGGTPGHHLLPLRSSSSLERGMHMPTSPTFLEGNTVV

[12] = tested on: various targets tested, including other GPCRs, ion channels, and enzymes; experiment: Pharmacology profiling (selectivity assays), panel of non-Edg targets of Table 2; type: binding; conditions: all targets listed in Table 2 (bradykinin, CB2, chemokine, dopamine, histamine, muscarinic, NPY, opiate, prostanoid, purinergic, serotonin, sigma, sodium channel, tachykinin, growth factors etc.)
[13] = target: T2, Edg-2 receptor (Homo sapiens, UniProt Q92633); experiment: LPA/S1P-stimulated calcium mobilization assay (FLIPR), HTC cells expressing Edg 2; type: cell-based; conditions: for inhibition of the Edg 2 receptor: FIG. 1 / FIG. 2; for IC50: HTC cells expressing Edg 2; for Fold Selective: selectivity for Edg-2 relative to other Edg receptors
T2 construct: expressed in transfected cells
T2 sequence (Q92633 whole entry): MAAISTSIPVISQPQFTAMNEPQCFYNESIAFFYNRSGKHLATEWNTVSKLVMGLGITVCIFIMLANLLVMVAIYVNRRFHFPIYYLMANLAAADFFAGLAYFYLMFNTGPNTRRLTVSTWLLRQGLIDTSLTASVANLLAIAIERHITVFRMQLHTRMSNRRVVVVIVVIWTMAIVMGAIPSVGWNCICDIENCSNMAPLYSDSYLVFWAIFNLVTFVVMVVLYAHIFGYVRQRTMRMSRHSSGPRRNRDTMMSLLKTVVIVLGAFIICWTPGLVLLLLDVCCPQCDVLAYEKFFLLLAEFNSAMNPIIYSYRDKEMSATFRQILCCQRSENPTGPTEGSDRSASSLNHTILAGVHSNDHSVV
Excerpt: Specific assays for Edg-2 receptor activity are known to those of skill in the art. For example, cells expressing Edg-2 receptors can be contacted with a membrane-permeant calcium sensitive dye such as Fluo-4 AM or a proprietary calcium dye loading kit (e.g., FLIPR Calcium Assay kit, Molecular Devices, Sunnyvale, Calif.). Intracellular calcium is capable of binding to the dye and emitting fluorescent radiation when illuminated at the appropriate wavelength. The cells can thus be illuminated an appropriate wavelength for the dye and any emitting light can be captured by a cooled CCD camera. Changes in fluorescence indicate changes in intracellular calcium resulting from the activation of an Edg-2 receptor. Such changes can be measured advantageously in whole cells in “real-time” (Berridge et al., Nature Reviews 2000, 1:11-21).
LPA receptors such as Edg-2, couple to calcium effector pathways, and result in increases in intracellular calcium following receptor activation (An, 1998, J. Cell. Biochem. Supp., 30-31: 147-157). This biological response lends itself to a very efficient, high-throughput screen using a Fluorescence Imaging Plate Reader (FLIPR; Molecular Devices, Sunnyvale, Calif.). The FLIPR system is a real-time, cell-based assay system with continuous fluorescence detection using a cooled CCD camera. The FLIPR system was used to developing an Edg-2 receptor screen. Rat hepatoma cells stably expressing Edg-2 receptor were plated on 384-well plates and loaded with a calcium dye loading kit (Molecular Devices, Sunnyvale, Calif.) for 1 hour at room temperature. Cells were then placed on the FLIPR^384 (Molecular Devices, Sunnyvale, Calif.) and excited by an argon laser at 488 nm. The data for the entire 384-well plate was updated every second. An integrated robotic pipettor allowed for simultaneous compound addition into each individual well in the plate.

[14] = target: T3, Edg 3 receptor (Homo sapiens, UniProt Q99500); experiment: LPA/S1P-stimulated calcium mobilization assay (FLIPR), HTC cells expressing Edg 3; type: cell-based; conditions: for inhibition of S1P-stimulated calcium increases: FIG. 1 / FIG. 2
T3 construct: expressed in transfected cells; host or cells: HTC (rat hepatoma) cells
T3 sequence (Q99500 whole entry): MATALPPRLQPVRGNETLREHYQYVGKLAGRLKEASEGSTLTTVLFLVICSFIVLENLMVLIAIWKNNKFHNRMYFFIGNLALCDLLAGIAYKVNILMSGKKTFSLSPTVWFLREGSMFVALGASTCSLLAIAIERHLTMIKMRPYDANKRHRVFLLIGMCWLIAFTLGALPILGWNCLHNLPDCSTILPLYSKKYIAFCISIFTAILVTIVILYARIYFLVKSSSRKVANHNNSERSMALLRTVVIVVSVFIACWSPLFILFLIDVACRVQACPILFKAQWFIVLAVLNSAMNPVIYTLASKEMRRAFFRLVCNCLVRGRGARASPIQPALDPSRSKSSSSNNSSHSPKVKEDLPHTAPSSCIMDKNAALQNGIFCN

[15] = target: T4, Edg-4 receptor (Homo sapiens, UniProt Q9HBW0); experiment: LPA/S1P-stimulated calcium mobilization assay (FLIPR), HTC cells expressing Edg 4; type: cell-based; conditions: for inhibition of LPA-stimulated calcium increases: FIG. 1 / FIG. 2
T4 construct: expressed in transfected cells; host or cells: HTC (rat hepatoma) cells
T4 sequence (Q9HBW0 whole entry): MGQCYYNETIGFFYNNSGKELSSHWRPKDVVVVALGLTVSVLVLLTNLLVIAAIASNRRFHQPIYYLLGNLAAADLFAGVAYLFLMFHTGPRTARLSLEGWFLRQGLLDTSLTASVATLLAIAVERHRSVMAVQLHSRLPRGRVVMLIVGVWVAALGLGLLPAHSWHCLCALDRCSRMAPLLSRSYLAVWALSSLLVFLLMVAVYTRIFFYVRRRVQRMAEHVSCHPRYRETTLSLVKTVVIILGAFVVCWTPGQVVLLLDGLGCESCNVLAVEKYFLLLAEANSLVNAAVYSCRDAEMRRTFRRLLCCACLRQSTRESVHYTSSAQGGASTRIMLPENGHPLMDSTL

[16] = target: T5, Edg 8 receptor (Homo sapiens, UniProt Q9H228); experiment: LPA/S1P-stimulated calcium mobilization assay (FLIPR), HTC cells expressing Edg 8; type: cell-based; conditions: for inhibition of S1P-stimulated calcium increases: FIG. 1 / FIG. 2
T5 construct: expressed in transfected cells; host or cells: HTC (rat hepatoma) cells
T5 sequence (Q9H228 whole entry): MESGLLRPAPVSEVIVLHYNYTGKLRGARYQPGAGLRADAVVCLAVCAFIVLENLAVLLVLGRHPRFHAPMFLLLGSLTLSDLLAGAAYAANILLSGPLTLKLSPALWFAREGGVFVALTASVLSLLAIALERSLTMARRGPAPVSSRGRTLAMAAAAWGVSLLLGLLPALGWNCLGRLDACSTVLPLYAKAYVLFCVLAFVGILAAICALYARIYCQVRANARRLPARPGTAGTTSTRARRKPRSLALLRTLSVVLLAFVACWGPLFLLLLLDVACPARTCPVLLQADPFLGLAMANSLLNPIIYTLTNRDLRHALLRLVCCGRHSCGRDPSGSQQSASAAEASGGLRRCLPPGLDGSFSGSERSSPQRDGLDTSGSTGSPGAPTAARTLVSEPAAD

[17] = target: T6, Edg-7 receptor (Homo sapiens, UniProt Q9UBY5); experiment: LPA/S1P-stimulated calcium mobilization assay (FLIPR), HTC cells expressing Edg 7; type: cell-based; conditions: for inhibition of LPA-stimulated calcium increases: FIG. 1 / FIG. 2
T6 construct: expressed in transfected cells; host or cells: HTC (rat hepatoma) cells
T6 sequence (Q9UBY5 1-353): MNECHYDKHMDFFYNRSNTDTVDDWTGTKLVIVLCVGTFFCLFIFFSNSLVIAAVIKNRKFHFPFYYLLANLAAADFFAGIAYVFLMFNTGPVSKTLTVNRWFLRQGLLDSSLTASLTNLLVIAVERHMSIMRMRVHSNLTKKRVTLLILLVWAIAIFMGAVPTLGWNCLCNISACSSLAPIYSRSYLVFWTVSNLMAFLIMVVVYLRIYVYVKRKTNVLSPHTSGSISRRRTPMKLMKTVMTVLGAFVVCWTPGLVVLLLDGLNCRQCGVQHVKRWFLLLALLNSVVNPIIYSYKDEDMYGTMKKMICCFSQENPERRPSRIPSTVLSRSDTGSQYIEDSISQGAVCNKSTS

[18] = target: T7, Edg 1 receptor (Homo sapiens, UniProt P21453); experiment: LPA/S1P-stimulated calcium mobilization assay (FLIPR), HTC cells expressing Edg 1; type: cell-based; conditions: for inhibition of S1P-stimulated calcium increases: FIG. 1 / FIG. 2
T7 construct: expressed in transfected cells; host or cells: HTC (rat hepatoma) cells
T7 sequence (P21453 whole entry): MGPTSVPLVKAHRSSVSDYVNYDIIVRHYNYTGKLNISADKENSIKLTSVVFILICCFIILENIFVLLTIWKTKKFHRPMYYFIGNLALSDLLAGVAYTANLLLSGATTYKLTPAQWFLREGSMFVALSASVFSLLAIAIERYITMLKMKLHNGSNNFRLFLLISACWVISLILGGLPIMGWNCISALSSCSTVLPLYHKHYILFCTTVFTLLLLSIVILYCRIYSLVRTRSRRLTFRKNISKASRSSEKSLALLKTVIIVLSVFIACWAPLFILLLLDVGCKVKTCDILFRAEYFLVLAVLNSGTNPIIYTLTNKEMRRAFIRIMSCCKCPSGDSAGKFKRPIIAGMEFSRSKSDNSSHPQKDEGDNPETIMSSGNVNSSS

[19] = tested on: immortalized ovarian surface epithelial cells; experiment: LPA-stimulated calcium mobilization in immortalized ovarian surface epithelial cells; type: cell-based; conditions: 10 μM compound, FIG. 3
[20] = tested on: forskolin-stimulated cAMP production; experiment: cAMP assay: LPA inhibition of forskolin-stimulated cAMP production; type: cell-based; conditions: FIG. 4
Excerpt: Because cAMP acts a second messenger in cell signaling, activating protein kinases that in turn phosphorylate enzymes and transcription factors, cAMP concentration is frequently indicative of the activation state of downstream signaling pathways. For GPCRs like the Edg receptors, coupling via a Gαi pathway results in inhibition of adenylyl cyclase activity, the key enzyme involved in breakdown of ATP and formation of cAMP. Thus, assays can be designed to measure inhibition of adenylyl cyclase activity, by first stimulating cAMP formation. One example of a compound, which stimulates cAMP formation is forskolin. Forskolin bypasses the receptor and directly activates adenylyl cyclase. […]
This assay can be performed by any means known to one of skill in the art. […] Following an incubation period, the cells are lysed and the level of cAMP is determined.
The cAMP assay can be performed by any means known to one of skill in the art, for example, by performing a competitive immunoassay. […] Detection can be performed by any appropriate means, including, but not limited to, using a substrate solution and chemiluminescent readout.
Cells were plated in a 96 well format. […] Following a 30-minute incubation period, the cells were lysed and the level of cAMP was determined. […]
Detection was performed using a substrate solution and chemiluminescent readout. […]

Sequence of Histamine H1, Central (P31389 whole entry): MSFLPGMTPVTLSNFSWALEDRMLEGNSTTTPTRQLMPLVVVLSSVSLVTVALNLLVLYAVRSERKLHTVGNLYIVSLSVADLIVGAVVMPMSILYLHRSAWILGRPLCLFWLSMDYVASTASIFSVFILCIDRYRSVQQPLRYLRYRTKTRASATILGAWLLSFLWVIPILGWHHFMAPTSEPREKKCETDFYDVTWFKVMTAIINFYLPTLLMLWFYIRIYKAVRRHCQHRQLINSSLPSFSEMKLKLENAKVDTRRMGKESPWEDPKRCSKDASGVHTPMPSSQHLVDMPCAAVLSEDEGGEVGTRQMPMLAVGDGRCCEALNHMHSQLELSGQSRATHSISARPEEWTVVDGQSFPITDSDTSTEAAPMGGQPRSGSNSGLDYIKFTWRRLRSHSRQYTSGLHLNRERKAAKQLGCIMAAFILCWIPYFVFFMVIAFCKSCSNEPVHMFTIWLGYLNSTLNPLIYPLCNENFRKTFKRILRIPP

Row | Compound | IC50 [11] [µM] | inhibition of S1P-stimulated calcium increases [11] | activity at various targets tested, including other GPCRs, ion channels, and enzymes [12] | inhibition of the Edg 2 receptor [13] | IC50 [13] [µM] | Fold Selective [13] [Fold] | IC50 [14] [µM] | inhibition of S1P-stimulated calcium increases [14] | IC50 [15] [µM] | inhibition of LPA-stimulated calcium increases [15] | IC50 [16] [µM] | inhibition of S1P-stimulated calcium increases [16] | IC50 [17] [µM] | inhibition of LPA-stimulated calcium increases [17] | IC50 [18] [µM] | inhibition of S1P-stimulated calcium increases [18] | inhibition of LPA-stimulated calcium mobilization [19] | reversal of the inhibitory effects of LPA on forskolin-stimulated cAMP production [20] | other results
1 | CCOc1ccccc1N1C(=O)CC(N(O)c2ccccc2)C1=O (centres unmarked) [Compound 101, 1-(2-Ethoxyphenyl)-3-(hydroxyphenylamino)-pyrrolidine-2,5-dione] | > 20 | did not inhibit | did not demonstrate any significant activity | specifically inhibit | 1.63 | >12.3 | > 20 | did not inhibit | > 20 | did not inhibit | > 20 | did not inhibit | > 20 | did not inhibit | > 20 | did not inhibit | – | – | activity in radioligand binding assay, H1 central [1]: no significant activity; activity in radioligand binding assay, Dopamine D2L [2]: no significant activity; activity in radioligand binding assay, Calcium Channels Type L, DHP [3]: no significant activity; activity in radioligand binding assay, Angiotensin AT2 [4]: no significant activity; activity in radioligand binding assay, Serotonin 5HT1 non-selective [5]: no significant activity; activity in radioligand binding assay, Adrenergic Beta, non-selective [6]: no significant activity; activity in radioligand binding assay, Endothelin ETA [7]: no significant activity; activity in radioligand binding assay, Adrenergic Alpha 2, non-selective [8]: no significant activity; activity in radioligand binding assay, Muscarinic, non-selective, central [9]: no significant activity; activity in radioligand binding assay, Adrenergic Alpha 1, non-selective [10]: no significant activity
2 | CCn1nc(C)c(-c2ccccc2O)c1-c1ccccc1 [Compound 103, 2-(1-Ethyl-3-methyl-5-phenyl-1H-pyrazol-4-yl)-phenol] | > 20 | did not inhibit | did not demonstrate any significant activity | specifically inhibited | 0.51 | >39.3 | > 20 | did not inhibit | > 20 | did not inhibit | > 20 | did not inhibit | > 20 | did not inhibit | > 20 | did not inhibit | almost completely inhibited | reverses the inhibitory effects of LPA | –
3 | CCOc1ccccc1N1C(=O)CC(N(O)c2ccc(F)cc2)C1=O (centres unmarked) [Compound 111, 1-(2-Ethoxyphenyl)-3-[(4-fluorophenyl)hydroxylamino]pyrrolidine-2,5-dione] | – | – | – | – | – | – | – | – | – | – | – | – | – | – | – | – | – | – | melting point: 123 to 124 °C
4 | O=C(CC(=O)C(F)(F)F)Nc1cc(-c2ccccc2)n[nH]1 [Compound 201, 4,4,4-trifluoro-3-oxo-N-(5-phenyl-2H-pyrazol-3-yl)-butyramide, reference compound] | – | – | – | – | – | – | – | – | – | – | – | – | – | – | – | – | little to no effect | little to no effect | –
